One series concerns A375 melanoma cell line. Put plainly: MTS assay of metabolic activity (cell viability), 48 h exposure, A375 cells. The format is cell-based, human. Particulars: for IC60 / IC50: A375, 48 h, MTS, ± SEM; for IC60: concentration decreasing biological activity to 60%. As for the experimental part:
(§1) Biological activity upon treatment with EVOO-PEs, DTIC, OCEIN, and OCAL was evaluated using an MTS assay in in vitro experimental models, including the A375 and A375M cancer cell lines and HaCaT immortalized cell line. […] Due to the fast cell growth rate, a longer incubation period or denser initial seeding caused the overgrowth of untreated cells. In comparison, a shorter incubation period or lower initial density caused the effect of the test substances to be more difficult to detect. Therefore, the experiments were performed within a 48-hour timeframe. In addition, to avoid the misinterpretation of the results, we checked whether the vehicle, which was DMSO for the test substances, had any effect on metabolic activity by exposing each cell type to 0.2 and 0.4% DMSO, i.e., to the highest final DMSO concentrations achieved with the highest final concentrations of test substances. […] Accordingly, the effects of the test substances were determined as relative biological activities (in terms of cell viability, i.e., cell survival) compared to the untreated cells (controls). The cells were treated with a series of dilutions made by diluting full strength (100%) EVOO-PE to concentrations of 0.025–0.400 % (v/v) of EVOO-PE in the medium.
(§2) Cells were grown in complete cell culture media, consisting of RPMI 1640, 2 mmol/L glutamine, 10% heat-inactivated foetal bovine serum (FBS), penicillin (100 IU/mL; 1 IU 67.7 µg/mL), and streptomycin (100 µg/mL). Cultures were maintained in a moisturized atmosphere with 5% CO2 at 37 °C and 95% relative humidity. All experiments were performed on cells between passages 4 and 8. The biological activity of the three EVOO-Pes, DTIC, OCEIN, and OCAL, as well as biological activity of the three EVOO-PEs following 6 h pre-incubation with DTIC was determined using a CellTiter 96®AQueous One Solution Cell Proliferation Assay. In short, 100 µL of cell cultures was seeded into 96-well tissue culture plates (A375 and HaCaT at a concentration of 2 × 10^3 cells/well, A375M at 7 × 10^3 cells/well). The next day, the medium was aspirated and media containing different concentrations of compounds were added to each well. All test compounds except DTIC were initially dissolved in DMSO and serially diluted in culture medium to obtain the final concentrations. DTIC was initially dissolved in culture medium, warmed to 37 °C, activated during 1 h exposure to light, and diluted in culture medium. The controls contained the test model cells and culture medium (containing either the complete medium or the DMSO in the highest final concentration, 0.2% and 0.4%) but no test compounds. The cells were incubated for 48 h before biological activity was measured. When investigating the combined effect, we exposed cells to DTIC for 6 h, removed the medium, and exposed the cells to medium containing EVOO-PE extracts for the next 24 h. In addition to the non-treated cells, the controls for experiments with DTIC pre-incubation were cells that had been exposed to DTIC for 6 h and cultured in a complete medium afterwards (without EVOO-PE). After incubation, media were aspirated, and 90 µL of serum-free medium containing MTS was added, according to the manufacturer’s instructions. After 1.5 h of incubation in the dark, the absorbance was measured at a wavelength of 490 nm using a microplate reader, Victor2-1420 Multilabel Counter (PerkinElmer, Yokohama, Japan). A negative control (medium without cells) was used as a blank. All experiments were performed in hexaplicate.
(§3) The GraphPad Prism software version 9.0.0 for Windows (GraphPad Software, San Diego, CA, USA), was used for the determination of inhibitory concentration as well as for statistical analysis. The normality of the data distribution was accessed using Kolmogorov–Smirnov and Shapiro–Wilk tests. The IC60 and IC50 values (concentrations that reduced cell growth to 60% or 50% of the initial value, respectively) were determined using a nonlinear regression curve fit. […]
(Tetrazolium assays rely on reduction of a dye to a coloured formazan, in cell work by metabolically active cells.)

In series [1] the test system is HaCaT immortalized keratinocytes. Nature of the series: MTS assay of metabolic activity (cell viability), 48 h exposure, HaCaT cells. It counts as cell-based. As to conditions: ± SEM, DTIC applied up to 1000 µM, italic values extrapolated; for IC50: Homo sapiens. As for the experimental part:
as §1, §2, §3

For series [2], the system named is A375M metastatic melanoma cell line. Put plainly: MTS assay of metabolic activity (cell viability), 48 h exposure, A375M cells. It counts as cell-based, human. Particulars: for effect on A375M cells: Figure S5b. As for the experimental part:
as §1
as §2, with “The controls contained the test model cells and culture medium (containing either the complete medium or the DMSO in the highest final concentration, 0.2% and 0.4%) but no test compounds.” left out, “When investigating the combined effect, we exposed cells to DTIC for 6 h, removed the medium, and exposed the cells to medium containing EVOO-PE extracts for the next 24 h. In addition to the non-treated cells, the controls for experiments with DTIC pre-incubation were cells that had been exposed to DTIC for 6 h and cultured in a complete medium afterwards (without EVOO-PE). After incubation, media were aspirated, and 90 µL of serum-free medium containing MTS was added, according to the manufacturer’s instructions.” left out, “A negative control (medium without cells) was used as a blank. All experiments were performed in hexaplicate.” left out

The test system of a further series is A375 cells. Particulars: cited from earlier work; for IC50: homemade isolated OCAL purified to 95%.
The subject of a further series is 501Mel melanoma cells. The arrangement: method as in earlier work. Particulars: ref 22 (Carpi et al.); read-out: IC50 of OCEIN on 501Mel melanoma cells; cited from earlier work.

Values joined by “and” are separate entries in the source; they are usually repeats but may differ in a detail not shown here. Equal entries are not always repeated. Where two headings read alike, the source gives them in different places. Where only a bound is given, the exact number is not on record here.

By IC50 is commonly meant the concentration that inhibits the measured activity by half. Turning to `CN(C)/N=N/c1[nH]cnc1C(N)=O` [DTIC, dacarbazine], the IC60 in the series on A375 melanoma cell line was 214.358 ± 13.449 µM; in series [1], 1137 ± 93.752 µM; in series [2] (A375M, ± SEM, DTIC applied up to 1000 µM, interpret with caution), 709.780 ± 99.634 µM. For the same molecule, the half-inhibitory concentration (IC50) with A375 melanoma cell line (Homo sapiens, A-375, 48 h) was 362 µM; in series [1], over 1000 µM; in series [2] (Homo sapiens, A375M, ± SEM, DTIC applied up to 1000 µM, interpret with caution), 872 ± 62.2 µM.
One may read the viability as a read-out of living cells in per cent, often relative to untreated cells. In the case of `C/C=C(/C=O)[C@@H](CC=O)CC(=O)OCCc1ccc(O)cc1` [OCAL, oleocanthal], the IC60 in the series with A375 melanoma cell line is 58.488 µM and 58.488 ± 1.836 µM; in series [1] it was 112.827 ± 2.904 µM. Besides, the half-inhibitory concentration (IC50) with A375 melanoma cell line was 67.5 ± 1.86 µM; in the series on A375 melanoma cell line (Homo sapiens, A-375, 48 h) it was 67 µM; in the series with A375 cells (ref 24 (Fogli et al.)), 13.6 µM; in the series on A375 cells (ref 25 (Gu et al.)) it was about 20 µM; in series [1], 130 ± 3.21 µM. The viability at 60 µM in the series with A375 melanoma cell line (Homo sapiens, A-375, 60 µM OCAL, cell line not given, read-out: viability compared to control) was about 80%. Further, the “viability compared to control” value with A375 cells (60 µM OCAL (highest applied), cell line not given, ref 25 (Gu et al.)) is recorded as ~ 80%. The “effect on A375M cells” value in series [2] is given as “failed to provoke any effect”.
For the molecule `CC=C(C=O)C(CC=O)CC(=O)OCCc1ccc(O)c(O)c1` (centres unmarked) [OCEIN, oleacein], the IC60 with A375 melanoma cell line was 101.052 µM and 101.052 ± 4.610 µM; in series [1], 103.061 ± 2.086 µM. Moreover, the IC50 with A375 melanoma cell line is 113 ± 4.92 µM; in the series on A375 melanoma cell line (Homo sapiens, A-375, 48 h), 112 µM; in series [1], 114 ± 2.3 µM; in the series on 501Mel melanoma cells, 82 µM. In addition, in series [2], the “effect on A375M cells” value is listed as “failed to provoke any effect”.

Source of the values: paper PMC9146374, “Extra Virgin Olive Oil Secoiridoids Modulate the Metabolic Activity of Dacarbazine Pre-Treated and Treatment-Naive Melanoma Cells” (Molecules, 2022).
